Reference: article PMC8570331, “8-Hydroxyquinoline-Amino Acid Hybrids and Their Half-Sandwich Rh and Ru Complexes: Synthesis, Anticancer Activities, Solution Chemistry and Interaction with Biomolecules” (International Journal of Molecular Sciences, 2021)
Marks after values point to notes of the source that are not given here.

Tests used:
Colo-205 cells = assay: Annexin V-FITC / propidium iodide apoptosis induction assay, flow cytometry; format: cell-based, human; settings: 25 μM, 3 h induction
Text: 12H-Benzo[α]phenothiazine (M627) and cisplatin were used as positive controls. Annexin-V assay offers the possibility of detecting early phases of apoptosis. Apoptosis is a morphologically and biochemically distinct form of programmed cell death, which is the preferred mode of action for an anticancer compound. PI was used to distinguish between viable, early apoptotic and necrotic or late apoptotic cells. […] In order to better understand the different behavior of the studied compounds, an in-depth analysis of the various solution (physico-)chemical properties of the ligands and complexes were performed.
The assay was carried out using an Annexin V-FITC Apoptosis Detection Kit from Sigma-Aldrich according to the manufacturer’s instructions. The concentration of the Colo-205 cell suspension was adjusted to approximately 0.5 × 10^6 cells per mL in RPMI 1640 medium, and the cell suspension was distributed in 1 mL aliquots into a 24-well plate and then incubated overnight at 37 °C and 5% CO2. The next day, the medium was removed and replaced by 1 mL RPMI 1640 medium containing the compounds except for the control samples. […] After the incubation period, the samples were washed with PBS, and a fresh medium was added to the samples. The cells were incubated overnight at 37 °C and 5% CO2. The next day, 200 μL 0.25% Trypsin (Trypsin-Versen) was added to the samples until cells appeared detached, followed by the addition of 400 μL of medium supplemented with 10% bovine serum. The cells were collected in Eppendorf tubes and centrifuged at 2000× g for 2 min. The harvested cells were re-suspended in a fresh serum-free RPMI 1640 culture medium. After this step, the apoptosis assay was carried out according to the protocol of the kit. The fluorescence was analyzed immediately using a ParTec CyFlow flow cytometer (Partec GmbH, Münster, Germany).

[1] = Proton dissociation and H2O/Cl- exchange constants of the complexes (UV-vis, 1H NMR); format: physicochemical; settings: T = 25.0 °C; for logK′ (H2O/Cl−) conditional exchange constant: pH 7.4; for pKa1 of the complex / pKa2 of the complex: I = 0.2 M KNO3
Experimental: In the basic pH range, both the UV-vis and ^1H NMR spectra recorded for the [M(arene)(H2O)3]^2+–ligand (1:1) systems reveal the further chemical transformation of the [M(arene)(HQCl-D-(h)ProH−1)(H2O)]^+ species. […] It should be noted that peaks of the p-cymene CH3 groups are doubled at pH > 10 (Figure S21b), indicating the loss of their symmetry due to the formation of the hydroxido complex, which probably blocks the free rotation of the arene ligand. Two pKa values were determined by both methods for each RuCym complex that is in good agreement (Table 3).
These deprotonation processes take place at somewhat higher pH in the case of the RhCp* complexes compared to the RuCym compounds; however, other differences were also observed.
Thus, only one pKa value could be computed (Table 3), which is rather assigned to the H2O → OH^− process. The peaks of the protons in the ^1H NMR spectra located nearby the metal center (both 8-hydroxyquinoline CH and CH3 protons of RhCp*) and the peaks of the homoproline moiety are shifted by increasing the pH (Figure S22b,c). […] Due to this side-reaction, no pKa values were calculated from the ^1H NMR spectra.
Based on the determined pKa values of the complexes (Table 3), it can be concluded that at physiological pH all of them are present predominantly in their [M(arene)(HQCl-D-(h)ProH−1)(H2O)]^+ form. However, in the presence of chloride ions, the exchange of the aqua ligand to the halide ligand is possible. The water/chloride co-ligand exchange process was monitored spectrophotometrically at pH 7.4, as it was performed for other RuCym and RhCp* complexes in our previous works. […] It can be concluded that the RhCp* complexes have stronger chloride ion affinity. The coordination of the chloride ion changes the charge of the complex; thus, it will also influence lipophilicity. In order to characterize the hydrophilic/lipophilic character of the complexes, n-octanol/buffer aqueous solution partitioning was performed at pH 7.4. The measurements were performed at three kinds of chloride ion concentrations regarding different biofluids (4, 24 and 100 mM for nucleus, cytosol and blood, respectively). The calculated logD7.4 values can be found in Figure 8.
Agilent Cary 8454 diode array spectrophotometer was utilized to obtain UV-vis spectra in the wavelength range 190–1100 nm. The path length (ℓ) was 1 cm in most cases (the actual ℓ is always indicated in the legends of the figures). The concentrations of the ligands and complexes were between 88 and 240 µM. For HSA and ct-DNA containing samples, complex concentrations were 100 µM, and 0.5 and 2 equiv. biomolecule were added for kinetic studies, respectively. Individual samples contained 0–20 µM HSA and 0–1.75 mM (nucleotide) ct-DNA. Spectra were always background corrected. The computer program HypSpec was used to obtain stability constants.
Bruker Avance III HD Ascend 500 Plus instrument (Billerica, MA, USA) was used for NMR studies. ^1H NMR spectroscopic measurements were carried out with a WATERGATE water suppression pulse scheme in the presence of 10% (v/v) D2O in most cases. DSS internal standard was added to samples to obtain reference peaks. Complex concentrations were 0.5 mM or 1.0 mM, and 0.5 equiv. HSA was added. ^1H NMR titrations were carried out in the presence of 0.2 M KNO3. With the FHA model peptide, the measurements were performed at 0.5 or 1 mM metal complex concentrations, and 1:1, 1:2 or 2:1 peptide-to-metal complex ratios were applied. The computer program HypSpec was used to obtain stability constants.

SMILES	cell death (Q1, A− PI+), gated events (Colo-205 cells) [%]	early apoptosis (Q3, A+ PI−), gated events (Colo-205 cells) [%]	late apoptosis and necrosis (Q2, A+ PI+), gated events (Colo-205 cells) [%]	logK′ (H2O/Cl−) conditional exchange constant ([1]; UV-vis)	pKa1 of the complex ([1]; UV-vis, chloride-free)	pKa1 of the complex ([1]; 1H NMR)	pKa2 of the complex ([1]; 1H NMR)	late apoptosis and necrosis (Q2, A+ PI+), gated events (Colo-205 cells; listed as RhCp*‒HQCl-D-hPro) [%]	pKa2 of the complex ([1]; UV-vis, chloride-free)
O=C(O)[C@H]1CCCCN1Cc1cc(Cl)c2cccnc2c1O [HQCl-D-hPro, (R)-5-chloro-7-((homoproline-1-yl)methyl)8-hydroxyquinoline]	27.5	0.987	9.1	–	–	–	–	–	–
Cc1c(C)c(C)[c-](C)c1C.O=C(O)[C@H]1CCC[NH+]1Cc1cc(Cl)c2cccnc2c1[O-].[Cl-].[Cl-].[Rh+3] [RhCp*–HQCl-D-Pro, [RhCp*(HQCl-D-Pro)Cl]Cl]	–	–	–	1.72 ± 0.01	10.08 ± 0.02	–	–	–	–
Cc1c(C)c(C)[c-](C)c1C.O=C(O)[C@H]1CCCC[NH+]1Cc1cc(Cl)c2cccnc2c1[O-].[Cl-].[Cl-].[Rh+3] [RhCp*–HQCl-D-hPro, [RhCp*(HQCl-D-hPro)Cl]Cl]	20.7	0.838	7.5	1.79 ± 0.01	10.11 ± 0.02	9.82 ± 0.13 ^a	10.06 ± 0.06 ^b	7.50	–
Cc1ccc(C(C)C)cc1.O=C(O)[C@H]1CCC[NH+]1Cc1cc(Cl)c2cccnc2c1[O-].[Cl-].[Cl-].[Ru+2] [RuCym–HQCl-D-Pro, [RuCym(HQCl-D-Pro)Cl]Cl]	27.9	0.288	5.37	1.18 ± 0.01	8.96 ± 0.01	9.02 ± 0.07	10.69 ± 0.06	–	10.67 ± 0.01
Cc1ccc(C(C)C)cc1.O=C(O)[C@H]1CCCC[NH+]1Cc1cc(Cl)c2cccnc2c1[O-].[Cl-].[Cl-].[Ru+2] [RuCym–HQCl-D-hPro, [RuCym(HQCl-D-hPro)Cl]Cl]	–	–	5.4	1.28 ± 0.01	8.78 ± 0.01	8.77 ± 0.05	10.13 ± 0.04	–	10.03 ± 0.02
